Legend:
AP sites [1] = assay: ARP assay of AP sites in A375 melanoma cells; format: cell-based; details: 12.5 mM co-treatment with TMZ, 24 hr
Procedure: FIG. 5 illustrates a graph showing AP sites increased in melanoma cells (A375) after treatment with TMZ in a dose-dependent manner. Using ARP assay, formation of AP sites in A375 melanoma cells were measured. Cells were treated with TMZ (0-1500 μM) alone or TMZ plus MX (12.5 mM) for 24 hr for a dose-dependent assay (black), or treated with TMZ and MX (12.5 mM) for 24 hr, or treated with TMZ and F422 (12.5 mM) for 24 hours.

AP sites [2] = assay: In vivo blocking experiment with unlabelled MX (microPET, glioma tumors); set-up: species or system mice; details: TMZ 80 mg/kg; unlabelled MX 2-10 mg/kg 30 min before [^11C]MX 2 mCi/kg; p value=0.003
Procedure: FIG. 4 illustrates; (A) plots of time-radioactivity courses of [^11C]MX in the glioma tumors before and after blocking by unlabelled MX; and (B) a graph showing average SUV between 0-60 min (n=4, where n is the number of tumors imaged and analyzed). Decrease of radioactivity concentration indicates in vivo blocking of AP binding sites by unlabeled MX (p value=0.003).
Thus, we conducted in vivo blocking experiment in tumor mice with unlabelled MX as a further test of whether the difference in radioactivity concentrations between TMZ-treated and untreated tumors is due to specific binding of [^11C]MX to AP sites. For this purpose, 4 tumor-bearing mice were treated with TMZ (80 mg/kg) for 10 min. Following the treatment, two mice were injected with unlabelled MX (2-10 mg/kg) and two were injected with vehicle control. Thirty minutes later, 2 mCi/kg of [^11C]MX was administered to each mouse and microPET imaging was performed. In each case, a vehicle-treated and an unlabeled MX-treated mouse were imaged side-by-side. Dynamic acquisition was carried out for 60 min in list mode.

AP sites [3] = assay: microPET of [^11C]MX in flank glioma (U87) xenografts, TMZ-treated vs non-treated; format: in vivo, mice; details: flank glioma xenograft; TMZ 80 mg/kg; 60 min scan
Procedure: (§1) Melanoma and glioma xenografts were prepared according to previously published procedures. Briefly, glioma (U87) and melanoma (WM164) tumor cells (5×10^6) were injected into the bilateral flanks of female athymic NRC nude mice (6-8 weeks of age). When the volume of tumor nodules reached 150-200 mm^3, mice are randomly assigned to control or treatment groups (4 mice/group).
Following MRI studies, the mice were transferred to a Concord R4 microPET scanner under anesthesia. The same holder was used for microPET studies so that the tumor positions of the mice remain unchanged in order to facilitate image coregistration with MRI. […] Body temperature in the anesthetized animals was monitored using a rectal temperature probe and maintained at 37+/−2° C. with a heating lamp or a heating pad.
Following MRI and microPET studies, we conducted quantitative image analysis in order to evaluate the in vivo pharmacokinetic profiles of [^11C]MX in tumor tissues. […] The co-registered images were used for quantitative image analysis to determine [^11C]MX uptake and retention associated with tumor tissues. The radioactivity concentration in the tumor regions is expressed in terms of standard uptake volume (SUV) [(μCi/cc)/(uCi/g)] as a function of time.
Malignant glioma is another type of cancer that can be effectively treated with TMZ because TMZ can readily penetrate the blood-brain barrier. […]

AP sites [4] = assay: microPET of [^11C]MX in melanoma (WM164) xenografts, TMZ-treated vs non-treated; format: in vivo, mice; details: melanoma xenograft
Procedure: as §1
Following MRI studies, the mice were transferred to a Concord R4 microPET scanner under anesthesia. The same holder was used for microPET studies so that the tumor positions of the mice remain unchanged in order to facilitate image coregistration with MRI. Subsequently, dynamic microPET scans were performed over 60 min in a list mode, immediately after a bolus injection of ca. 500 μCi of [^11C]MX via the tail vein. Body temperature in the anesthetized animals was monitored using a rectal temperature probe and maintained at 37+/−2° C. with a heating lamp or a heating pad.
Following MRI and microPET studies, we conducted quantitative image analysis in order to evaluate the in vivo pharmacokinetic profiles of [^11C]MX in tumor tissues. We defined the tumor tissues as the region of interest (ROI) through coregistration of microPET images with MRI images. The co-registered images were used for quantitative image analysis to determine [^11C]MX uptake and retention associated with tumor tissues. The radioactivity concentration in the tumor regions is expressed in terms of standard uptake volume (SUV) [(μCi/cc)/(uCi/g)] as a function of time.
Because TMZ, like dacarbazine, has been used in the treatment patients with metastatic malignant melanoma, we first conducted microPET studies in human (WM164) melanoma xenograft tumor model. In each experiment, two mice bearing melanoma xenografts were used, one treated with TMZ (80 mg/kg) to induce DNA damage and the other used as negative control. Prior to microPET scans, the mice were placed in a 7T MRI scanner and T2-weighted MRI images were acquired following the above-mentioned protocol. […]

Compound	ARP detected AP sites on co-treatment with TMZ (AP sites [1])	concentration of tumor-associated radioactivity after blocking with unlabelled MX (AP sites [2])	retention of [^11C]MX in tumor regions (AP sites [3])	radioactivity concentration in tumor, TMZ-treated vs non-treated mice (AP sites [4]; TMZ 80 mg/kg, 10 min post injection of [^11C]MX (ca. 2 mCi/kg i.v.)) [fold]	tumor uptake of [^11C]MX in TMZ-treated vs non-TMZ treated mice (AP sites [4]; TMZ 80 mg/kg, 60 min scan)	entry of [^11C]MX into tumor tissue (AP sites [4]; i.v. ca. 2 mCi/kg, microPET)
CON [MX, methoxyamine]	reduced the ARP detected AP sites	significantly decreased				
[11CH3]ON [[^11C]MX, (^11C)methoxyamine]			higher in TMZ-treated tumor regions than in non-treated tumor regions	1.6	increased uptake	readily entered the tumor tissue at early time points
